Source: PubChem BioAssay (NCI)
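How tested: cells in 96-well plates exposed to compound for 48 hours at five concentrations. Here, GI50 denotes the concentration required for 50% inhibition of growth. TGI is the concentration that stops growth completely.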

Assays:
Assay in all cases: DTP human tumour cell line panel, 48 h
786-0 renal = tested on: 786-0 renal
A498 renal = tested on: A498 renal
A549 NSCLC = tested on: A549 NSCLC
ACHN renal = tested on: ACHN renal
BT-549 breast = tested on: BT-549 breast
CAKI-1 renal = tested on: CAKI-1 renal
CCRF-CEM leukemia = tested on: CCRF-CEM leukemia
COLO 205 colon = tested on: COLO 205 colon
DU-145 prostate = tested on: DU-145 prostate
EKVX NSCLC = tested on: EKVX NSCLC
HCC-2998 colon = tested on: HCC-2998 colon
HCT-116 colon = tested on: HCT-116 colon
HCT-15 colon = tested on: HCT-15 colon
HL-60(TB) leukemia = tested on: HL-60(TB) leukemia
HOP-62 NSCLC = tested on: HOP-62 NSCLC
HOP-92 NSCLC = tested on: HOP-92 NSCLC
HT29 colon = tested on: HT29 colon
IGROV1 ovarian = tested on: IGROV1 ovarian
K-562 leukemia = tested on: K-562 leukemia
KM12 colon = tested on: KM12 colon
M14 melanoma = tested on: M14 melanoma
MALME-3M melanoma = tested on: MALME-3M melanoma
MCF7 breast = tested on: MCF7 breast
MDA-MB-435 = tested on: MDA-MB-435
MDA-MB-468 breast = tested on: MDA-MB-468 breast
MOLT-4 leukemia = tested on: MOLT-4 leukemia
NCI-H226 lung = tested on: NCI-H226 lung
NCI-H23 lung = tested on: NCI-H23 lung
NCI-H460 lung = tested on: NCI-H460 lung
NCI-H522 lung = tested on: NCI-H522 lung
NCI/ADR-RES ovarian = tested on: NCI/ADR-RES ovarian
OVCAR-3 ovarian = tested on: OVCAR-3 ovarian
OVCAR-4 ovarian = tested on: OVCAR-4 ovarian
OVCAR-5 ovarian = tested on: OVCAR-5 ovarian
OVCAR-8 ovarian = tested on: OVCAR-8 ovarian
PC-3 prostate = tested on: PC-3 prostate
RPMI-8226 leukemia = tested on: RPMI-8226 leukemia
RXF 393 renal = tested on: RXF 393 renal
SF-268 CNS = tested on: SF-268 CNS
SF-295 CNS = tested on: SF-295 CNS
SF-539 CNS = tested on: SF-539 CNS
SK-MEL-2 melanoma = tested on: SK-MEL-2 melanoma
SK-MEL-28 melanoma = tested on: SK-MEL-28 melanoma
SK-MEL-5 melanoma = tested on: SK-MEL-5 melanoma
SK-OV-3 ovarian = tested on: SK-OV-3 ovarian
SN12C renal = tested on: SN12C renal
SNB-19 CNS = tested on: SNB-19 CNS
SNB-75 CNS = tested on: SNB-75 CNS
SR leukemia = tested on: SR leukemia
T-47D breast = tested on: T-47D breast
TK-10 renal = tested on: TK-10 renal
U251 CNS = tested on: U251 CNS
UACC-257 melanoma = tested on: UACC-257 melanoma
UACC-62 melanoma = tested on: UACC-62 melanoma
UO-31 renal = tested on: UO-31 renal

COc1ccc(-c2ccnc(SCc3cc4ccccc4[nH]c3=O)n2)cc1OC
GI50 (786-0 renal): 14.5 µM | TGI (786-0 renal): 37.9 µM | GI50 (A498 renal): 17.8 µM | TGI (A498 renal): 50.9 µM | GI50 (A549 NSCLC): 23.6 µM | TGI (A549 NSCLC): > 100 µM | GI50 (ACHN renal): 13.5 µM | TGI (ACHN renal): 27.8 µM | GI50 (BT-549 breast): 7.58 µM | TGI (BT-549 breast): 34.8 µM | GI50 (CAKI-1 renal): 8.22 µM | TGI (CAKI-1 renal): 25.4 µM | GI50 (CCRF-CEM leukemia): 34.3 µM | TGI (CCRF-CEM leukemia): > 100 µM | GI50 (COLO 205 colon): 33.9 µM | TGI (COLO 205 colon): > 100 µM | GI50 (DU-145 prostate): 18.1 µM | TGI (DU-145 prostate): 71.9 µM | GI50 (EKVX NSCLC): 14.6 µM | TGI (EKVX NSCLC): 53.5 µM | GI50 (HCC-2998 colon): 21.4 µM | TGI (HCC-2998 colon): 58.8 µM | GI50 (HCT-116 colon): 21.2 µM | TGI (HCT-116 colon): > 100 µM | GI50 (HCT-15 colon): 20 µM | TGI (HCT-15 colon): > 100 µM | GI50 (HL-60(TB) leukemia): 99.6 µM | TGI (HL-60(TB) leukemia): > 100 µM | GI50 (HOP-62 NSCLC): 16.4 µM | TGI (HOP-62 NSCLC): 45.8 µM | GI50 (HOP-92 NSCLC): 1.84 µM | TGI (HOP-92 NSCLC): 14.9 µM | GI50 (HT29 colon): 18.8 µM | TGI (HT29 colon): 40.6 µM | GI50 (IGROV1 ovarian): 16.8 µM | TGI (IGROV1 ovarian): 39.8 µM | GI50 (K-562 leukemia): 5.48 µM | TGI (K-562 leukemia): > 100 µM | GI50 (KM12 colon): 30.8 µM | TGI (KM12 colon): > 100 µM | GI50 (M14 melanoma): 40.3 µM | TGI (M14 melanoma): > 100 µM | GI50 (MALME-3M melanoma): 23.1 µM | TGI (MALME-3M melanoma): 54.4 µM | GI50 (MCF7 breast): 26.9 µM | TGI (MCF7 breast): > 100 µM | GI50 (MDA-MB-435): 30.6 µM | TGI (MDA-MB-435): > 100 µM | GI50 (MDA-MB-468 breast): 4.27 µM | TGI (MDA-MB-468 breast): 34 µM | GI50 (MOLT-4 leukemia): 7.17 µM | TGI (MOLT-4 leukemia): > 100 µM | GI50 (NCI-H226 lung): 13 µM | TGI (NCI-H226 lung): 37.2 µM | GI50 (NCI-H23 lung): 17.4 µM | TGI (NCI-H23 lung): 42.6 µM | GI50 (NCI-H460 lung): 26.8 µM | TGI (NCI-H460 lung): > 100 µM | GI50 (NCI-H522 lung): 18.3 µM | TGI (NCI-H522 lung): 61.1 µM | GI50 (NCI/ADR-RES ovarian): 14.3 µM | TGI (NCI/ADR-RES ovarian): 49.8 µM | GI50 (OVCAR-3 ovarian): 19.5 µM | TGI (OVCAR-3 ovarian): 56.4 µM | GI50 (OVCAR-4 ovarian): 19.1 µM | TGI (OVCAR-4 ovarian): 84.6 µM | GI50 (OVCAR-5 ovarian): 12.7 µM | TGI (OVCAR-5 ovarian): 30.8 µM | GI50 (OVCAR-8 ovarian): 23.2 µM | TGI (OVCAR-8 ovarian): > 100 µM | GI50 (PC-3 prostate): 16.5 µM | TGI (PC-3 prostate): 50.8 µM | GI50 (RPMI-8226 leukemia): 16.3 µM | TGI (RPMI-8226 leukemia): > 100 µM | GI50 (RXF 393 renal): 5.45 µM | TGI (RXF 393 renal): 27.6 µM | GI50 (SF-268 CNS): 20.8 µM | TGI (SF-268 CNS): > 100 µM | GI50 (SF-295 CNS): 13.7 µM | TGI (SF-295 CNS): 34 µM | GI50 (SF-539 CNS): 12.4 µM | TGI (SF-539 CNS): 27.4 µM | GI50 (SK-MEL-2 melanoma): 16.9 µM | TGI (SK-MEL-2 melanoma): 50.4 µM | GI50 (SK-MEL-28 melanoma): 17.3 µM | TGI (SK-MEL-28 melanoma): 38.5 µM | GI50 (SK-MEL-5 melanoma): 13 µM | TGI (SK-MEL-5 melanoma): 42.8 µM | GI50 (SK-OV-3 ovarian): 19.9 µM | TGI (SK-OV-3 ovarian): 41.7 µM | GI50 (SN12C renal): 12.4 µM | TGI (SN12C renal): 34.9 µM | GI50 (SNB-19 CNS): 16.9 µM | TGI (SNB-19 CNS): 54 µM | GI50 (SNB-75 CNS): 4.36 µM | TGI (SNB-75 CNS): 23.6 µM | GI50 (SR leukemia): 18.3 µM | TGI (SR leukemia): > 100 µM | GI50 (T-47D breast): 11 µM | TGI (T-47D breast): 38.9 µM | GI50 (TK-10 renal): 17.5 µM | TGI (TK-10 renal): 58.9 µM | GI50 (U251 CNS): 19.9 µM | TGI (U251 CNS): > 100 µM | GI50 (UACC-257 melanoma): 30.6 µM | TGI (UACC-257 melanoma): 89.9 µM | GI50 (UACC-62 melanoma): 14.5 µM | TGI (UACC-62 melanoma): 41 µM | GI50 (UO-31 renal): 11.1 µM | TGI (UO-31 renal): 26.6 µM
